Read-outs that look alike come from different tables or passages of the source.
Assay: Plasma pharmacokinetics (LC-MS/MS)
Format: in vivo, human
Conditions: human, plasma; for concentration at 15 day: read-out: Cmin, Median (Min, max)
Method: In the dose escalation part of the study, PK samples were collected at various pre- and post-dose time points on C1D1, D2, D3, D15 and D16. Drug concentrations were assessed using a validated liquid chromatography-tandem mass spectrometry assay.

CC1(N)CCN(c2cccnc2NC(=O)c2nc(-c3ncccc3C(F)(F)F)cnc2N)CC1 [LXS196]
AUC(0-t) (oral, 500 mg, C1D1, 500 mg QD, n=10, read-out: AUC0-t, Median (Min, max)): 50700 ng·h/mL | AUC(0-inf) (oral, 500 mg, C1D1, 500 mg QD, n=10, read-out: AUCinf, Geo-mean): 59500 ng·h/mL | AUC(0-inf) (oral, 500 mg, C1D1, 500 mg QD, n=10, read-out: AUCinf, Mean (SD)): 63400 ng·h/mL | AUC(0-inf) (oral, 500 mg, C1D1, 500 mg QD, n=10, read-out: AUCinf, Median (Min, max)): 61700 ng·h/mL | Cmax (oral, 500 mg, C1D1, 500 mg QD, n=10, read-out: Cmax, Geo-mean): 4670 ng/mL | Cmax (oral, 500 mg, C1D1, 500 mg QD, n=10, read-out: Cmax, Mean (SD)): 4970 ng/mL | Cmax (oral, 500 mg, C1D1, 500 mg QD, n=10, read-out: Cmax, Median (Min, max)): 4380 ng/mL | half-life (oral, 500 mg, C1D1, 500 mg QD, n=10, read-out: T1/2, Geo-mean (converted)): 10.1 h | half-life (oral, 500 mg, C1D1, 500 mg QD, n=10, read-out: T1/2, Mean (SD) (converted)): 10.2 h | half-life (oral, 500 mg, C1D1, 500 mg QD, n=10, read-out: T1/2, Median (Min, max) (converted)): 10.1 h | Tmax (oral, 500 mg, C1D1, 500 mg QD, n=10, read-out: Tmax, Median (Min, max)): 1.03 h | AUC(0-t) (oral, 500 mg, C1D15, 500 mg QD, n=9, read-out: AUC0-t, Geo-mean): 43100 ng·h/mL | AUC(0-t) (oral, 500 mg, C1D15, 500 mg QD, n=9, read-out: AUC0-t, Mean (SD)): 45700 ng·h/mL | AUC(0-t) (oral, 500 mg, C1D15, 500 mg QD, n=9, read-out: AUC0-t, Median (Min, max)): 41700 ng·h/mL | Cmax (oral, 500 mg, C1D15, 500 mg QD, n=9, read-out: Cmax, Geo-mean): 3870 ng/mL | Cmax (oral, 500 mg, C1D15, 500 mg QD, n=9, read-out: Cmax, Mean (SD)): 4170 ng/mL | Cmax (oral, 500 mg, C1D15, 500 mg QD, n=9, read-out: Cmax, Median (Min, max)): 3700 ng/mL | concentration at 15 day (oral, 500 mg, C1D15, 500 mg QD, n=9): 643 ng/mL | Tmax (oral, 500 mg, C1D15, 500 mg QD, n=9, read-out: Tmax, Median (Min, max)): 1.07 h | AUC(0-t) (oral, 800 mg, C1D1, 800 mg QD, n=1, read-out: AUC0-t, Geo-mean): 54300 ng·h/mL | AUC(0-t) (oral, 800 mg, C1D1, 800 mg QD, n=1, read-out: AUC0-t, Mean (SD)): 54300 ng·h/mL | AUC(0-t) (oral, 800 mg, C1D1, 800 mg QD, n=1, read-out: AUC0-t, Median (Min, max)): 54300 ng·h/mL | AUC(0-inf) (oral, 800 mg, C1D1, 800 mg QD, n=1, read-out: AUCinf, Geo-mean): 66200 ng·h/mL | AUC(0-inf) (oral, 800 mg, C1D1, 800 mg QD, n=1, read-out: AUCinf, Mean (SD)): 66200 ng·h/mL | AUC(0-inf) (oral, 800 mg, C1D1, 800 mg QD, n=1, read-out: AUCinf, Median (Min, max)): 66200 ng·h/mL | Cmax (oral, 800 mg, C1D1, 800 mg QD, n=1, read-out: Cmax, Geo-mean): 6080 ng/mL | Cmax (oral, 800 mg, C1D1, 800 mg QD, n=1, read-out: Cmax, Mean (SD)): 6080 ng/mL | Cmax (oral, 800 mg, C1D1, 800 mg QD, n=1, read-out: Cmax, Median (Min, max)): 6080 ng/mL | half-life (oral, 800 mg, C1D1, 800 mg QD, n=1, read-out: T1/2, Geo-mean (converted)): 8.85 h | half-life (oral, 800 mg, C1D1, 800 mg QD, n=1, read-out: T1/2, Mean (SD) (converted)): 8.85 h | half-life (oral, 800 mg, C1D1, 800 mg QD, n=1, read-out: T1/2, Median (Min, max) (converted)): 8.85 h | Tmax (oral, 800 mg, C1D1, 800 mg QD, n=1, read-out: Tmax, Median (Min, max)): 0.483 h | AUC(0-inf) (oral, 1000 mg, C1D1, 1000 mg QD, n=3, read-out: AUCinf, Geo-mean): 75700 ng·h/mL | AUC(0-inf) (oral, 1000 mg, C1D1, 1000 mg QD, n=3, read-out: AUCinf, Mean (SD)): 78000 ng·h/mL | AUC(0-inf) (oral, 1000 mg, C1D1, 1000 mg QD, n=3, read-out: AUCinf, Median (Min, max)): 66000 ng·h/mL | half-life (oral, 1000 mg, C1D1, 1000 mg QD, n=3, read-out: T1/2, Geo-mean (converted)): 9.94 h | half-life (oral, 1000 mg, C1D1, 1000 mg QD, n=3, read-out: T1/2, Mean (SD) (converted)): 10 h | half-life (oral, 1000 mg, C1D1, 1000 mg QD, n=3, read-out: T1/2, Median (Min, max) (converted)): 9.32 h | AUC(0-t) (oral, 1000 mg, C1D1, 1000 mg QD, n=4, read-out: AUC0-t, Geo-mean): 69700 ng·h/mL | AUC(0-t) (oral, 1000 mg, C1D1, 1000 mg QD, n=4, read-out: AUC0-t, Mean (SD)): 74300 ng·h/mL | AUC(0-t) (oral, 1000 mg, C1D1, 1000 mg QD, n=4, read-out: AUC0-t, Median (Min, max)): 70100 ng·h/mL | Cmax (oral, 1000 mg, C1D1, 1000 mg QD, n=4, read-out: Cmax, Geo-mean): 5080 ng/mL | Cmax (oral, 1000 mg, C1D1, 1000 mg QD, n=4, read-out: Cmax, Mean (SD)): 5410 ng/mL | Cmax (oral, 1000 mg, C1D1, 1000 mg QD, n=4, read-out: Cmax, Median (Min, max)): 5230 ng/mL | Tmax (oral, 1000 mg, C1D1, 1000 mg QD, n=4, read-out: Tmax, Median (Min, max)): 2 h | AUC(0-t) (oral, 1000 mg, C1D15, 1000 mg QD, n=2, read-out: AUC0-t, Geo-mean): 48000 ng·h/mL | AUC(0-t) (oral, 1000 mg, C1D15, 1000 mg QD, n=2, read-out: AUC0-t, Mean (SD)): 48300 ng·h/mL | AUC(0-t) (oral, 1000 mg, C1D15, 1000 mg QD, n=2, read-out: AUC0-t, Median (Min, max)): 48300 ng·h/mL | Cmax (oral, 1000 mg, C1D15, 1000 mg QD, n=2, read-out: Cmax, Geo-mean): 4870 ng/mL | Cmax (oral, 1000 mg, C1D15, 1000 mg QD, n=2, read-out: Cmax, Mean (SD)): 5110 ng/mL | Cmax (oral, 1000 mg, C1D15, 1000 mg QD, n=2, read-out: Cmax, Median (Min, max)): 5110 ng/mL | concentration at 15 day (oral, 1000 mg, C1D15, 1000 mg QD, n=2): 674 ng/mL | Tmax (oral, 1000 mg, C1D15, 1000 mg QD, n=2, read-out: Tmax, Median (Min, max)): 0.792 h | half-life (oral, across different doses, read-out: Terminal T1/2 (converted)): ~11 h | Tmax (oral, fasting, 100–1000 mg QD and 200–400 mg BID, read-out: Tmax): ~1 h | Tmax (po, D1 and D15, read-out: Median Tmax, range across dose groups): 0.483 to 2 h | half-life (po, read-out: Mean terminal half-life (T1/2), range across dose groups): 8.49 to 13.8 h
